The term AUC(0-inf) denotes the area under the concentration-time curve extrapolated to infinity. Read a high AUC(0-inf) as high exposure. Broadly, the CL/F is the apparent clearance, not corrected for the fraction that reaches the circulation. As a reminder, the Cmax is the maximum level reached in the sampled fluid or tissue. As usually defined, the Tmax is the time from dosing to the highest level. Usually half-life stands for the time needed for the level to fall by half in the phase considered. What is called AUC(0-t) is the area under the concentration-time curve up to a stated or last time point. A higher AUC(0-t) goes with more exposure.

Series [1] is described as follows: in vivo. Set-up: species or system Crl:CD1(ICR) mice. The settings on record: mouse, sc.
The nature of series [2]: in vivo. The settings on record: rat, sc; for AUC(0-t) / CL/F / Cmax / Tmax / half-life: female, Sprague Dawley. Set-up: species or system sprague dawley rats.
A further series concerns gubra DIO rats. The settings on record: gubra choice DIO model; cited from earlier work.
The mark [3] stands for this setting: both, Crl:CD1(ICR) (CD-1), 625 nmol/kg.

With `CC[C@H](C)[C@H](NC(=O)[C@H](CC(C)C)NC(=O)[C@H](Cc1c[nH]c2ccccc12)NC(=O)[C@H](CCC(N)=O)NC(=O)[C@@H](NC(=O)[C@H](Cc1ccccc1)NC(=O)[C@H](C)NC(=O)[C@H](CCCCNC(=O)COCCOCCNC(=O)COCCOCCNC(=O)CC[C@H](NC(=O)CCCCCCCCCCCCCCCCCCC(=O)O)C(=O)O)NC(=O)[C@H](CCC(N)=O)NC(=O)[C@H](C)NC(=O)[C@@H](NC(=O)[C@H](CCCCN)NC(=O)[C@H](CC(=O)O)NC(=O)[C@H](CC(C)C)NC(=O)C(C)(C)NC(=O)[C@@H](NC(=O)[C@H](CO)NC(=O)[C@H](Cc1ccc(O)cc1)NC(=O)[C@H](CC(=O)O)NC(=O)[C@H](CO)NC(=O)[C@@H](NC(=O)[C@H](Cc1ccccc1)NC(=O)[C@@H](NC(=O)CNC(=O)[C@H](CCC(=O)O)NC(=O)C(C)(C)NC(=O)[C@@H](N)Cc1ccc(O)cc1)[C@@H](C)O)[C@@H](C)O)[C@@H](C)CC)[C@@H](C)CC)C(C)C)C(=O)N[C@@H](C)C(=O)NCC(=O)NCC(=O)N1CCC[C@H]1C(=O)N[C@@H](CO)C(=O)N[C@@H](CO)C(=O)NCC(=O)N[C@@H](C)C(=O)N1CCC[C@H]1C(=O)N1CCC[C@H]1C(=O)N1CCC[C@H]1C(=O)N[C@@H](CO)C(N)=O` [tirzepatide], in the series “in vivo [1]” (setting [3]), the AUC(0-inf) came to 71.7 µM·h, the CL/F is 0.145 mL/min/kg, the highest level (Cmax) was 2540 nM and the Tmax is 12 h. In the series “in vivo [1]” (setting [3]), the half-life was 11.9 h. Besides, the “T1/2 (elimination half-life)” value in “in vivo [1]” is listed as “approximately 12 hr”. In the series “in vivo [2]” (31 nmol/kg), the AUC(0-t) was found to be 3.74 µM·h, the CL/F was 0.139 mL/min/kg, the peak level (Cmax) was 127 nM and the Tmax stood at 12 h. Further, in “in vivo [2]” (31 nmol/kg), the half-life is 9.3 h. In “in vivo [2]” (104 nmol/kg), the AUC(0-t) amounted to 10 µM·h, the CL/F was 0.172 mL/min/kg, the Cmax was found to be 310 nM and the Tmax came to 12 h. For the same compound, the half-life in the series “in vivo [2]” (104 nmol/kg) is 10.3 h. Besides, in “in vivo [2]”, the T1/2 was determined as 10.3 h.

On to “liraglutide (HAEGTFTSDVSSYLEGQAAKEFIAWLVRGRG; chains of the INN, looked up)”, for which, in the series with gubra DIO rats, the “cumulative chow intake compared to controls” value is recorded as “approximately doubled” and the “decrease of cumulative gubra diet intake compared to controls” value was “approximately 60%”.

The values above are taken from publication PMC10362946 (Diabetes, obesity & metabolism, 2022).
